Tests used:
[1] = tested on: DPCs; assay: Cell viability, WST-1 assay, testosterone-induced apoptosis; format: cell-based; settings: 200 μM testosterone, every 24 hr for 4 days, DPCs compared to 3T3 fibroblasts, FIG. 4 left
Protocol: Cell viability was evaluated through WST-1 assay (EZ-cytox Cell Viability Assay Kit). DPCs and 3T3 fibroblasts were cultured at a density of 1×10^4/well in a 96-well plate for 24 hr. Here, the culture medium was replaced with a new medium containing 200 μM testosterone, and after 24 hr, a WST-1 reagent was added thereto. The WST-1 reagent was added in an amount of 10% of the culture broth, and after 1 hr, absorbance was measured at 460 nm and thus cell survival and proliferation were compared with a control group (non-treated group). Cell survival was measured at an interval of 24 hr for 4 days after testosterone treatment.
After treatment with the nanoliposome-microbubble conjugate (HTP) of the present invention before treatment with testosterone in the same manner, the culture medium was replaced with a new medium containing 200 μM testosterone, the subsequent procedures were conducted as above, and the state of cells was observed. A comparative group was treated with the nanoliposome-microbubble conjugate (HTP) alone.

[2] = tested on: C57BL/6J mice; assay: Testosterone-induced hair loss mouse model, hair growth; format: in vivo; settings: FIG. 5
Protocol: The hair on the back of each of 6-week-old mice (C57BL/6J) was epilated using an animal epilator (Philips) and hair removal cream (Veet), after which testosterone was dissolved in a mixed solution of propylene glycol and ethanol (3:7 (v:v)) and applied every day at a concentration of 30 μg/ml, and thus an environment similar to that of human hair loss was made.
In the present experiment, the individual test groups were as follows (testosterone was applied to the skin in all cases). • (1) A control group (non-treated group); • (2) A group treated with testosterone; • (3) A group treated with testosterone and then subjected to skin application with the nanoliposome-microbubble conjugate of Example 1; • (4) A group treated with testosterone and then subjected to oral administration with a commercially available finasteride solution; • (5) A group treated with testosterone and then subjected to skin application with a commercially available finasteride solution; • (6) A group treated with testosterone and then subjected to skin application with the nanoliposome of Comparative Example 1; and • (7) A group subjected to skin application with the nanoliposome-microbubble conjugate of Example 1.
A nanoliposome-microbubble conjugate (HTP) configured such that the nanoliposome and the microbubble were conjugated and dispersed at a ratio of 2:1 was used. 200 μl thereof, having a total finasteride content of 1 μg, was applied on the entire epilated back of the mice using a plastic spatula, and after 3 min, was exposed to ultrasound using a medical sonicator. Here, the nanoliposome-microbubble conjugate was applied five times at an interval of one day. Under the same conditions, the total finasteride content was matched in the group treated with the commercially available finasteride solution in lieu of the solution of Example 1 or Comparative Example 1. […]

Compound	extent of apoptosis over time [1]	hair growth, testosterone alone ([2]; testosterone 30 μg/ml applied every day to epilated back)	hair growth after testosterone, skin application ([2]; testosterone 30 μg/ml daily, total finasteride 1 μg, applied five times at one-day interval)	hair growth after testosterone, oral administration ([2]; testosterone daily, oral dose 10 times the application dose, five times)
C[C@]12CC[C@H]3[C@@H](CCC4=CC(=O)CC[C@@]43C)[C@@H]1CC[C@@H]2O [testosterone]	greatly increased in DPCs compared to 3T3 cells	grew hardly any hair		
CC(C)(C)NC(=O)[C@H]1CC[C@H]2[C@@H]3CC[C@H]4NC(=O)C=C[C@]4(C)[C@H]3CC[C@]12C [commercially available finasteride drug, finasteride]			hair started growing on the seventh week	hair started growing on the seventh week

Reference: patent US11980688B2, “Nanoliposome-microbubble conjugate including drug for hair loss treatment encapsulated in nanoliposome and composition for alleviating or treating hair loss containing same” (priority 2018, dated 2024)
